From patent US20040053972A1, “Medicinal compositions having improved absorbability” (priority 2000, published 2004)

How the values were obtained:
HER2 = target: T1, HER2 (Homo sapiens, UniProt P04626); test: Inhibition of phosphorylation of receptor tyrosine (HER2) in human breast cancer cells MCF-7; type: cell-based; details: MCF-7 cells, test compound 2 hours, then heregulin 0.8 μg/mL for 5 minutes
T1 construct: amount of phosphorylation of HER2 tyrosine of the cells; endogenous in cells; host or cells: MCF-7 human breast cancer cell line
Method: Inhibition of Phosphorylation of Receptor Tyrosine in Human Breast Cancer Cells
In each well of a 24-well plate, 500 μl of the cell suspension ([…]) of human breast cancer cell line MCF-7 was seeded and incubated at 37° C. in a 5% carbon dioxide gas incubator. On the next day, 250 μl of a 4-fold serial dilution of a solution of a test compound was added to each well and, 2 hours later, 250 μl of a heregulin solution, which was adjusted so as to be the final concentration of 0.8 μg/mL, was added thereto. After 5 minutes, an extracting solution was added thereto to terminate the reaction as well as to extract a protein. The protein was fractionated by protein electrophoresis and the protein in the electrophoretic gel was transferred to a nylon filter. The filter was reacted with a phosphorylated tyrosine-specific antibody. The reaction product was fluorescence-labeled and was exposed to a photo-film. The intensity of the exposure on the photo-film was quantitated by an image-analyzing apparatus.

[1] = system: human breast cancer cell line BT-474; test: In vitro inhibition of growth of breast cancer cell BT-474; type: cell-based; details: 120 h, BT-474 cells, heregulin, cultured for 5 days, SRB staining
Method: In vitro Inhibition of Growth of Breast Cancer Cell BT-474
In each well of a 96-well microtiter plate, 100 μl (containing 1,000 cells) of a cell suspension of human breast cancer cell line BT-474 was seeded and incubated at 37° C. in a 5% carbon dioxide gas incubator. On the next day, 100 μl of the 2-fold serial dilution of a solution of each test compound prepared by using 250 μl of a heregulin solution, which was adjusted so as to be the final concentration of 0.8 μg/mL, was added to each well and cultured for 5 days. The solution containing the test compound was removed and the cells were washed and fixed with a 50% trichloroacetic acid solution. To the cells was added a 0.4% (W/V) solution of pigment SRB (dissolved in 1% acetic acid) to fix as well as stain the cell protein (Skehan P. et al., Journal of the National Cancer Institute Vol. 82, pp. 1107-1112, 1990). The pigment solution was removed and the remainder was washed with a 1% acetic acid solution. Then, 100 μl of an extracting solution (10 mM Tris buffer) was added thereto to extract the pigment. The optical density of the extract at the wavelength of 550 nm was measured to determine the amount of the cells in terms of the amount of the protein. The proportion of the amount of remaining protein of each treated group was determined by taking the amount of protein of the control to which no solution of a test compound was added as 100% to calculate the value of the concentration of the compound required for inhibiting the remaining cells by 50% of that of the control (IC50)

[2] = system: Human breast cancer cell line BT-474; test: In vivo breast cancer inhibiting effect (BT-474 implanted in nude mice); details: nude mice with BT-474 tumors, orally twice daily 30 mg/kg body weight for 10 days
Method: In Vivo Breast Cancer Inhibiting Effect
Human breast cancer cell line BT-474 (5,000,000 cells) were suspended in a gel-matrix solution. The suspension was subcutaneously implanted in the breast of 6-week-old female Balb/C strain nude mice (Friedman R. et al., Proceedings of the National Academy of Sciences of the U.S.A. Vol. 87, pp. 6698-6702, 1990). At the time of the implantation and seven days after the implantation, an estradiol dipropionate solution (5 mg/mL) was intramuscularly administered to the hind leg for the purpose of enhancing a take ratio of tumors. Fourteen days after the implantation, the diameters of tumors were determined. For the experiment were used 5 mice per group with similar tumor size. Each of compounds (4, 6, 14, 17, 19, 20, 23, 24 and 26) of the present invention was suspended in a 5% gum arabic solution (physiological saline) and administered orally twice daily in dose of 30 mg/kg body weight for 10 days. On the day when the administration was terminated, the diameters of tumors were measured. Tumor volume was calculated by the following equation.
Volume of tumor=longest diameter×shortest diameter×shortest diameter×½
The growth rate of tumors was calculated as the proportion of the value obtained by subtracting the initial volume from the final volume in the group to which the drug was administered, to the value obtained by subtracting the initial volume from the final volume in the control group to which a gum arabic solution was administered.

T1 sequence (P04626 23-1255): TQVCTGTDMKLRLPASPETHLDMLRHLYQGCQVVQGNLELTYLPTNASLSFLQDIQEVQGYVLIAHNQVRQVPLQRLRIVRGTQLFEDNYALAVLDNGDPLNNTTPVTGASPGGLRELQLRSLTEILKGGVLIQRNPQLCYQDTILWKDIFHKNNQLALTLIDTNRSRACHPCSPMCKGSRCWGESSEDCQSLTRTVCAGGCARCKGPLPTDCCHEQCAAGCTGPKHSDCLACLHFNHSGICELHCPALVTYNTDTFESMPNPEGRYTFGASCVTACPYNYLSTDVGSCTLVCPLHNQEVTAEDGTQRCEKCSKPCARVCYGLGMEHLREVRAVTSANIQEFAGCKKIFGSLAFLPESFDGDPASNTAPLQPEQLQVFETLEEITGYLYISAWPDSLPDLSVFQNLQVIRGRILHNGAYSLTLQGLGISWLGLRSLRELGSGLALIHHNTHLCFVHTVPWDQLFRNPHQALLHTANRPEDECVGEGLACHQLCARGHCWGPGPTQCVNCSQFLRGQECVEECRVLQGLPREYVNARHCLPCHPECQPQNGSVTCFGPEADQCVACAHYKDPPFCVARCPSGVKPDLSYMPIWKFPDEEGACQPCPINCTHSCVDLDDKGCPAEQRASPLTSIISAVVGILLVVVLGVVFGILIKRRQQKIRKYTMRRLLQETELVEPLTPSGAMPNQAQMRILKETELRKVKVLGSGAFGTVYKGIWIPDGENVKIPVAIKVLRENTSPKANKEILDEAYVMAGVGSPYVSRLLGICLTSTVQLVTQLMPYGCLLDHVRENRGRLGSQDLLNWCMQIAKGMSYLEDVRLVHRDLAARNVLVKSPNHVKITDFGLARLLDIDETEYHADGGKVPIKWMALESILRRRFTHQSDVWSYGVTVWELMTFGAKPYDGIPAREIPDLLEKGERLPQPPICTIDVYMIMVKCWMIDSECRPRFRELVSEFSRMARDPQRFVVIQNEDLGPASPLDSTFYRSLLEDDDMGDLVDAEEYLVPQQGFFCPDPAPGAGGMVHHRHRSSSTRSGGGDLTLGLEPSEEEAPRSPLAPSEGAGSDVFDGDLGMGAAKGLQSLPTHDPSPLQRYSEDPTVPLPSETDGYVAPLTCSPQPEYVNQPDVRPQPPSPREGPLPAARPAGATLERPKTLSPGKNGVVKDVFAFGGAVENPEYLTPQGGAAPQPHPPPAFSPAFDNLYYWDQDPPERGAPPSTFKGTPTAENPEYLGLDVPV

Structure (SMILES)	IC50 (HER2) [µM]	IC50 [1] [µM]	melting point [°C]	Inhibition ratio (%) [2] [%]
Fc1ccc(/C=C/c2nc(COc3cccc(CCCn4ccnn4)c3)co2)c(F)c1 [B8, 1-{3-[3-({2-[(E)-2-(2,4-Difluorophenyl)ethenyl]-1,3-oxazol-4-yl}methoxy)phenyl]propyl}-1H-1,2,3-triazole]			89 to 90	
Cc1ccc(/C=C/c2nc(COc3ccc(CCCCn4ccnc4CCO)cc3)co2)cc1 [B10, 2-[1-[4-[4-[[2-[(E)-2-(4-Methylphenyl)ethenyl]-1,3-oxazol-4-yl]methoxy]phenyl]butyl]-1H-imidazol-2-yl]-1-ethanol]			108 to 109	
Cc1cccc(/C=C/c2nc(COc3ccc(CCCCn4ccnc4CCO)cc3)co2)c1 [B11, 2-[1-[4-[4-[[2-[(E)-2-(3-Methylphenyl)ethenyl]-1,3-oxazol-4-yl]methoxy]phenyl]butyl]-1H-imidazol-2-yl]-1-ethanol]	1.1	< 0.05	109 to 111	
Cc1ccccc1/C=C/c1nc(COc2ccc(CCCCn3ccnc3CCO)cc2)co1 [B12, 2-[1-[4-[4-[[2-[(E)-2-(2-Methylphenyl)ethenyl]-1,3-oxazol-4-yl]methoxy]phenyl]butyl]-1H-imidazol-2-yl]-1-ethanol]			91 to 93	
CCc1ccc(/C=C/c2nc(COc3ccc(CCCCn4ccnc4CCO)cc3)co2)cc1 [B13, 2-[1-[4-[4-[[2-[(E)-2-(4-Ethylphenyl)ethenyl]-1,3-oxazol-4-yl]methoxy]phenyl]butyl]-1H-imidazol-2-yl]-1-ethanol]			94 to 95	
OCCc1nccn1CCCCc1ccc(OCc2coc(/C=C/c3ccc(F)cc3)n2)cc1 [B14, 2-(1-{4-[4-({2-[(E)-2-(4-Fluorophenyl)ethenyl]-1,3-oxazol-4-yl}methoxy)phenyl]butyl}-1H-imidazol-2-yl)-1-ethanol]			130 to 132	
OCCc1nccn1CCCCc1ccc(OCc2coc(/C=C/c3ccc(Cl)cc3)n2)cc1 [B15, 2-[1-[4-[4-[[2-[(E)-2-(4-Chlorophenyl)ethenyl]-1,3-oxazol-4-yl]methoxy]phenyl]butyl]-1H-imidazol-2-yl]-1-ethanol]			127 to 128	
OCCc1nccn1CCCCc1ccc(OCc2coc(/C=C/c3ccc(Br)cc3)n2)cc1 [B16, 2-[1-[4-[4-[[2-[(E)-2-(4-Bromophenyl)ethenyl]-1,3-oxazol-4-yl]methoxy]phenyl]butyl]-1H-imidazol-2-yl]-1-ethanol]			149 to 150	
OCCc1nccn1CCCc1ccc(OCc2coc(/C=C/c3ccc(F)cc3F)n2)cc1 [B20, 2-[1-[3-[4-[[2-[(E)-2-(2,4-Difluorophenyl)ethenyl]-1,3-oxazol-4-yl]methoxy]phenyl]propyl]-1H-imidazol-2-yl]-1-ethanol]	1.5	< 0.05	94 to 96	
Cc1cccc(/C=C/c2nc(COc3ccc(CCCCn4ccnc4CC(O)CO)cc3)co2)c1 (centres unmarked) [B22, 3-(1-{4-[4-({2-[(E)-2-(3-Methylphenyl)ethenyl]-1,3-oxazol-4-yl}methoxy)phenyl]butyl}-1H-imidazol-2-yl)-1,2-propanediol]	1.9	< 0.05	102 to 104	
OCC(O)Cc1nccn1CCCCc1ccc(OCc2coc(/C=C/c3ccc(F)cc3)n2)cc1 (centres unmarked) [B23, 3-(1-{4-[4-({2-[(E)-2-(4-Fluorophenyl)ethenyl]-1,3-oxazol-4-yl}methoxy)phenyl]butyl}-1H-imidazol-2-yl)-1,2-propanediol]			114 to 116	27
OCC(O)Cc1nccn1CCCc1cccc(OCc2coc(/C=C/c3ccc(F)cc3F)n2)c1 (centres unmarked) [B27, 3-(1-{3-[3-({2-[(E)-2-(2,4-Difluorophenyl)ethenyl]-1,3-oxazol-4-yl}methoxy)phenyl]propyl}-1H-imidazol-2-yl)-1,2-propanediol]			92 to 94	
OCC(O)Cc1nccn1CCCCc1ccc(OCc2coc(/C=C/c3c(F)cccc3F)n2)cc1 (centres unmarked) [B28, 3-[1-[4-[4-[[2-[(E)-2-(2,6-Difluorophenyl)ethenyl]-1,3-oxazol-4-yl]methoxy]phenyl]butyl]-1H-imidazol-2-yl]-1,2-propanediol]			123 to 125	
OCCc1nccn1CCCCc1ccc(OCc2coc(/C=C/c3ccc(F)cc3F)n2)cc1 [Reference Example B19, 2-[1-[4-[4-[[2-[(E)-2-(2,4-Difluorophenyl)ethenyl]-1,3-oxazol-4-yl]methoxy]phenyl]butyl]-1H-imidazol-2-yl]-1-ethanol]		0.017	93 to 95	
OCC(O)Cc1nccn1CCCCc1ccc(OCc2coc(/C=C/c3ccc(F)cc3F)n2)cc1 (centres unmarked) [Reference Example B26, 3-(1-{4-[4-({2-[(E)-2-(2,4-Difluorophenyl)ethenyl]-1,3-oxazol-4-yl}methoxy)phenyl]butyl}-1H-imidazol-2-yl)-1,2-propanediol]	0.92	< 0.05		15

The next lines start with results.

IC50 (HER2) [µM]	IC50 [1] [µM]	melting point [°C]	Structure (SMILES)	Inhibition ratio (%) [2] [%]
0.18	< 0.05	105 to 106	Fc1ccc(/C=C/c2nc(COc3cccc(CCCn4ccnn4)c3)co2)cc1 [B3, 1-{3-[3-({2-[(E)-2-(4-Fluorophenyl)ethenyl]-1,3-oxazol-4-yl}methoxy)phenyl]propyl}-1H-1,2,3-triazole]	
	< 0.05	157 to 158	FC(F)(F)c1ccc(/C=C/c2nc(COc3ccc(CCCn4ccnn4)cc3)co2)cc1 [B5, 1-(3-{4-[(2-{(E)-2-[4-(Trifluoromethyl)phenyl]ethenyl}-1,3-oxazol-4-yl)methoxy]phenyl}propyl)-1H-1,2,3-triazole]	
		115 to 117	Fc1ccc(/C=C/c2nc(COc3ccc(CCCCn4ccnn4)cc3)co2)c(F)c1 [B7, 1-{4-[4-({2-[(E)-2-(2,4-Difluorophenyl)ethenyl]-1,3-oxazol-4-yl}methoxy)phenyl]butyl}-1H-1,2,3-triazole]	
		142 to 143	OCC(O)Cc1nccn1CCCCc1ccc(OCc2coc(/C=C/c3ccc(C(F)(F)F)cc3)n2)cc1 (centres unmarked) [B24, 3-[1-(4-{4-[(2-{(E)-2-[4-(Trifluoromethyl)phenyl]ethenyl}-1,3-oxazol-4-yl)methoxy]phenyl}butyl)-1H-imidazol-2-yl]-1,2-propanediol]	28
		102 to 104	OCC(O)Cc1nccn1CCCc1cccc(OCc2coc(/C=C/c3ccc(C(F)(F)F)cc3)n2)c1 (centres unmarked) [B25, 3-[1-(3-{3-[(2-{(E)-2-[4-(Trifluoromethyl)phenyl]ethenyl}-1,3-oxazol-4-yl)methoxy]phenyl}propyl)-1H-imidazol-2-yl]-1,2-propanediol]	
1.9	< 0.05	124 to 125	Fc1ccc(/C=C/c2nc(COc3ccc(CCCCn4ccnn4)cc3)co2)cc1 [Reference Example B2, 1-{4-[4-({2-[(E)-2-(4-Fluorophenyl)ethenyl]-1,3-oxazol-4-yl}methoxy)phenyl]butyl}-1H-1,2,3-triazole]	
1.2	< 0.05	115 to 116	FC(F)(F)c1ccc(/C=C/c2nc(COc3cccc(CCCn4ccnn4)c3)co2)cc1 [Reference Example B6, 1-(3-{3-[(2-{(E)-2-[4-(Trifluoromethyl)phenyl]ethenyl}-1,3-oxazol-4-yl)methoxy]phenyl}propyl)-1H-1,2,3-triazole]	28
